Measurements from ChEMBL document CHEMBL1201862, “PubChem BioAssay data set” (2004).
Active and inactive are the calls of the source.

What was measured:
Protein RecA = target: T1, Protein RecA (Mycobacterium tuberculosis, UniProt P9WHJ3); test: Fluorescence Cell-Free Homogeneous Dose Retest to Identify Inhibitors of RecA-Intein Splicing Activity. [Related pubchem assays (depositor defined):AID2097, AID2223, AID489010, AID492950]; assay type: functional
T1 sequence (P9WHJ3 whole entry): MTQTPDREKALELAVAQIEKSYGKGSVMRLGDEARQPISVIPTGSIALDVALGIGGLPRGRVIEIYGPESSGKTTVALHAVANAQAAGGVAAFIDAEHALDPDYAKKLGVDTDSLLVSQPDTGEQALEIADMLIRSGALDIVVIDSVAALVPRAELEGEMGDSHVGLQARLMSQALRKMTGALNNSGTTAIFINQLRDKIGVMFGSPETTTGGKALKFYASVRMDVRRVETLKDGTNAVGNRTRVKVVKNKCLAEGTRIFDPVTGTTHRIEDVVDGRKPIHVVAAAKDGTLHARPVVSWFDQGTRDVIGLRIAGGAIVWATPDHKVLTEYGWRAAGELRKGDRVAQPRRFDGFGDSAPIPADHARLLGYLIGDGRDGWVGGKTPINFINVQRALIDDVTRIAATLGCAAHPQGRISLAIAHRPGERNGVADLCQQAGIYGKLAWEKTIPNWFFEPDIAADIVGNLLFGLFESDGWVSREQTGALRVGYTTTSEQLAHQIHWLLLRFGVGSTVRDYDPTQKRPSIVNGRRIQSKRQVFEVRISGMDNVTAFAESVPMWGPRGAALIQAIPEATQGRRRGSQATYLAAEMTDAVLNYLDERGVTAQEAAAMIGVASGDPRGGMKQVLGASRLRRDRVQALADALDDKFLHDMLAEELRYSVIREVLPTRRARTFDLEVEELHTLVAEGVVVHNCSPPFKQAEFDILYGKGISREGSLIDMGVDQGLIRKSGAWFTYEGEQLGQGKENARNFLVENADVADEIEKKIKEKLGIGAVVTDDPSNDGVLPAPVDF

Aminopeptidase N = target: T2, Aminopeptidase N (Plasmodium falciparum FcB1/Columbia, UniProt O96935); test: P. falciparum M1AAP inhibitors, biochemical, fluorogenic H-Leu-NHMec substrate, 1536-well (AID 1445); design: species or system Plasmodium falciparum 3D7, 3D7
T2 sequence (O96935 whole entry): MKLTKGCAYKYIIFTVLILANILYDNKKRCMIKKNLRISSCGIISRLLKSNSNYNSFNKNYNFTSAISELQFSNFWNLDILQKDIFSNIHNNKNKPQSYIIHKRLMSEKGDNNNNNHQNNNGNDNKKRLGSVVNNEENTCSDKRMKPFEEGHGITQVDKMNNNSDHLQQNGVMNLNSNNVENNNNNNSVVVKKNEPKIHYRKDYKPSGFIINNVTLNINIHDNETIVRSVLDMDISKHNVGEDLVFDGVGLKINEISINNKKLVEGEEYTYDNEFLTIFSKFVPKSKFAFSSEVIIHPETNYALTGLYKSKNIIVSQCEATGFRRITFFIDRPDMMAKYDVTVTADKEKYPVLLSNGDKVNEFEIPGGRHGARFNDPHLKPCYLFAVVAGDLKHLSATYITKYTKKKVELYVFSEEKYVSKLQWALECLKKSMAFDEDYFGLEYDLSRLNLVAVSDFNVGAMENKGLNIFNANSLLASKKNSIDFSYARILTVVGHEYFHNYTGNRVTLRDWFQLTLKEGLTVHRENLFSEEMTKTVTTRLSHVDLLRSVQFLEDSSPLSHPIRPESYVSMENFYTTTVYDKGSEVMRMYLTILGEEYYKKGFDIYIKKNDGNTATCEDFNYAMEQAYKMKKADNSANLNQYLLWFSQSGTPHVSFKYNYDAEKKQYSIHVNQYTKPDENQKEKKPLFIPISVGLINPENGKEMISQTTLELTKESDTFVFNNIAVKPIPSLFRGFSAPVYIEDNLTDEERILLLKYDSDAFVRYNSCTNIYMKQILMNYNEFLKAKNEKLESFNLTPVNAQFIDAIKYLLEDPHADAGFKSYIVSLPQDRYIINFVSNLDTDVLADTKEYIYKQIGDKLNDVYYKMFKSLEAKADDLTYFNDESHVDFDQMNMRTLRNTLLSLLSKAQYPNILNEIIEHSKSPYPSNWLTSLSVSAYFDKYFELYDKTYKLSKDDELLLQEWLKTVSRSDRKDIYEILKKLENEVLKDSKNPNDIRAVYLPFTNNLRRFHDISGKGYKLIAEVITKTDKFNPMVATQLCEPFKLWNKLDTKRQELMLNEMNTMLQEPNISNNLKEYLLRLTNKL

[1] = inhibitors of Bluetongue virus cytopathic effect, confirmation, arbovirus, BSR cells (AID 1250); assay type: functional;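 further: protection from viral cytopathic effect measured as cell viability by ATP luminescence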
[2] = target: T3, Replicative DNA helicase DnaB (Mycobacterium tuberculosis, UniProt P9WMR3); test: DnaB intein splicing inhibitors, dose response, biochemical, cell-free fluorescence (AID 449749); assay type: functional
T3 sequence (P9WMR3 whole entry): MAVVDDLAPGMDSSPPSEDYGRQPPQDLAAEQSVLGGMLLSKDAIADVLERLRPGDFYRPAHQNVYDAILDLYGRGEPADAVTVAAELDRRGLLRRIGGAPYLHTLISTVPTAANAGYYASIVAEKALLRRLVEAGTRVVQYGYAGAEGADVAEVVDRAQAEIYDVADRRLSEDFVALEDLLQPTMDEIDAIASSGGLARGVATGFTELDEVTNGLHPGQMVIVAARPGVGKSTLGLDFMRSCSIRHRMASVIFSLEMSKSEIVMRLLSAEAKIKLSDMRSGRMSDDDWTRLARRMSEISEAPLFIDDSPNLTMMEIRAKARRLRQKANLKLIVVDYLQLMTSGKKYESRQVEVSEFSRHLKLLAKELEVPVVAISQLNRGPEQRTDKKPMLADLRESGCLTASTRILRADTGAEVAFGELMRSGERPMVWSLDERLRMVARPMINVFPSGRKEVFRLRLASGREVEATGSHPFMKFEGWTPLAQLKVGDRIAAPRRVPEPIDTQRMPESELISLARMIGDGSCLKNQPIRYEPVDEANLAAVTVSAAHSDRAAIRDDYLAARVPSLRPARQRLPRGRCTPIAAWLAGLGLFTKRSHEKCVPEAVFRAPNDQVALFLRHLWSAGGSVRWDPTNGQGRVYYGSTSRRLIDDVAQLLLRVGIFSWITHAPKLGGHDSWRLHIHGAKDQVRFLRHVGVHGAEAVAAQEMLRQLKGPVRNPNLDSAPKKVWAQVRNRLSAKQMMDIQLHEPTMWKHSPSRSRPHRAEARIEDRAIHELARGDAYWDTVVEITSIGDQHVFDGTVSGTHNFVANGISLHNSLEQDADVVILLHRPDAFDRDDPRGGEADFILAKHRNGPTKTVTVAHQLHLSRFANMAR

[3] = HIV-1 Env-mediated cell fusion inhibitors, dose response, CCR5-tropic Env (AID 2279); assay type: functional
[4] = target: Bifunctional protein GlmU (Mycobacterium tuberculosis, UniProt P9WMN3); test: Inhibitors of Mycobacterial Glucosamine-1-phosphate acetyl transferase (GlmU). Secondary screen.; design: species or system Mycobacterium tuberculosis H37Rv
Bifunctional protein GlmU, sequence (P9WMN3 whole entry): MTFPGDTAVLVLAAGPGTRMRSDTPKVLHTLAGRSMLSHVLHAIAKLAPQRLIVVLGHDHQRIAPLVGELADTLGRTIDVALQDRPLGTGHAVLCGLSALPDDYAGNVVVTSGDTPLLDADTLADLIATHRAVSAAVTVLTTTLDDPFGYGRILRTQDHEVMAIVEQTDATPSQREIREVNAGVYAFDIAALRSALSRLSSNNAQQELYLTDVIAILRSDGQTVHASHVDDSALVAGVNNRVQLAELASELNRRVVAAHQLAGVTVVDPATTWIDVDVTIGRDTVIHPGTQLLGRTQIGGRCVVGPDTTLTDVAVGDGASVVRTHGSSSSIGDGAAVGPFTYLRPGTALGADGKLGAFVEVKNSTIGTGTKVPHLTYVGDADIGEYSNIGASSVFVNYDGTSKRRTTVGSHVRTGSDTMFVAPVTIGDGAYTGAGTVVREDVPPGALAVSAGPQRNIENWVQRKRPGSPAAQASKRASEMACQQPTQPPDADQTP

Estrogen receptor = target: T4, Estrogen receptor (Homo sapiens, UniProt P03372); test: ERα–SRC-3 coactivator interaction inhibitors, confirmation, orthogonal assay, biochemical, ELISA, streptavidin-HRP readout (AID 1079)
T4 sequence (P03372 whole entry): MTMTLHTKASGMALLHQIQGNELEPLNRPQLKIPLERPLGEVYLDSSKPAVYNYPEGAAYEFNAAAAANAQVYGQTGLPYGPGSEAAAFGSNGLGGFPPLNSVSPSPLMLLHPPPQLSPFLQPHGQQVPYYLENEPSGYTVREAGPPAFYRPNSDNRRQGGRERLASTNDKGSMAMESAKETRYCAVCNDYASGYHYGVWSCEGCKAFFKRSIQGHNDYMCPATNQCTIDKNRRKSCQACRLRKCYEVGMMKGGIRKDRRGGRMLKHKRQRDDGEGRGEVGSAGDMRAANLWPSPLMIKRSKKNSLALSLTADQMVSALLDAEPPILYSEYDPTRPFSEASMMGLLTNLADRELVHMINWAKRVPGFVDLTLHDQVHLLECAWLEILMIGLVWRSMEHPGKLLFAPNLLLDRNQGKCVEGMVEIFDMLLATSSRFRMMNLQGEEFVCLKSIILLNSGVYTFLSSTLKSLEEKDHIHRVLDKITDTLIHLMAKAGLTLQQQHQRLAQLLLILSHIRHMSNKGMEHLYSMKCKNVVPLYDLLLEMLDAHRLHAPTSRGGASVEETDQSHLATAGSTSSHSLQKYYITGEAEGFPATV

[5] = Counterscreen for IDE inhibitors: Luminescence-based cell-based high throughput dose response assay to identify compounds that are cytotoxic to HEK cells. [Related pubchem assays: 434962 (Primary screen (IDE inhibitors in singlicate)), 449730 (Counterscreen (Cytotoxicity in triplicate)), 435028 (Confirmation (IDE inhibitors in triplicate)) …; assay type: functional; conditions: HEK293
Insulin-degrading enzyme = target: T5, Insulin-degrading enzyme (Homo sapiens, UniProt P14735); test: Dose Response: Fluorescence polarization-based cell-based high throughput dose response assay for inhibitors of insulin-degrading enzyme (IDE). [Related pubchem assays: 434962 (Primary screen (IDE inhibitors in singlicate)), 449730 (Counterscreen (Cytotoxicity in triplicate)), 435028 (Confirmation (IDE inhibitors in triplicate)), 434984 (Summary …; assay type: functional
T5 sequence (P14735 whole entry): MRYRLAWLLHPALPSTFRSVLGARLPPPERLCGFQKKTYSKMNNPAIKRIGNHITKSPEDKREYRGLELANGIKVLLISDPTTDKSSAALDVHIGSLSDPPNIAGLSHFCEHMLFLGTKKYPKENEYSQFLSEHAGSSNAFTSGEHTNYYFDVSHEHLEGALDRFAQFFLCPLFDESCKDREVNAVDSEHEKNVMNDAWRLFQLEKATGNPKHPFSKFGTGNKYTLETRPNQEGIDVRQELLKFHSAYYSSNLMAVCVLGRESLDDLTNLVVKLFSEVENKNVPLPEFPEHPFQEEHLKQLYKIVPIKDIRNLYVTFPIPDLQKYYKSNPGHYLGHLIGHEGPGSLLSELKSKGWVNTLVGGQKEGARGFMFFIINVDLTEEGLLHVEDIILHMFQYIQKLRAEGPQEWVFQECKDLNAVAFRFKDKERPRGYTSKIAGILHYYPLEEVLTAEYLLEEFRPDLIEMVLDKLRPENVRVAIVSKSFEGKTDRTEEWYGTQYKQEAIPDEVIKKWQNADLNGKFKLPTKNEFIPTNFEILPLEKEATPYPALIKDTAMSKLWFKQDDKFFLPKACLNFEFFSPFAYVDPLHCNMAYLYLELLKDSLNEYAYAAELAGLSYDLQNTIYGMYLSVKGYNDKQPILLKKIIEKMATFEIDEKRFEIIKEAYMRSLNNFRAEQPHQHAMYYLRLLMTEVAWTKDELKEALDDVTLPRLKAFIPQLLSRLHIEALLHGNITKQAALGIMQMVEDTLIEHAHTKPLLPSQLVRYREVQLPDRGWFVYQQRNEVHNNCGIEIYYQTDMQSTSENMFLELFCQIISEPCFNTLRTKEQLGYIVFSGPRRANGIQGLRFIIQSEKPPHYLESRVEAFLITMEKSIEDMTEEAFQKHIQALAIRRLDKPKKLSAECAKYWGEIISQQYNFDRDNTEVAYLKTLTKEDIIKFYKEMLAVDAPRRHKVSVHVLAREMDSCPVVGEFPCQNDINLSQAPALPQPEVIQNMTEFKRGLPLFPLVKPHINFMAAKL

[6] = target: T6, Corticotropin-releasing factor receptor 2/Corticotropin-releasing factor-binding protein (Homo sapiens, UniProt P24387+Q13324); test: activators of CRF receptor 2 with binding protein – uHTS hits, confirmation (AID 602473); assay type: functional; conditions: read-out: EC50_Mean
T6 sequence (Q13324 whole entry): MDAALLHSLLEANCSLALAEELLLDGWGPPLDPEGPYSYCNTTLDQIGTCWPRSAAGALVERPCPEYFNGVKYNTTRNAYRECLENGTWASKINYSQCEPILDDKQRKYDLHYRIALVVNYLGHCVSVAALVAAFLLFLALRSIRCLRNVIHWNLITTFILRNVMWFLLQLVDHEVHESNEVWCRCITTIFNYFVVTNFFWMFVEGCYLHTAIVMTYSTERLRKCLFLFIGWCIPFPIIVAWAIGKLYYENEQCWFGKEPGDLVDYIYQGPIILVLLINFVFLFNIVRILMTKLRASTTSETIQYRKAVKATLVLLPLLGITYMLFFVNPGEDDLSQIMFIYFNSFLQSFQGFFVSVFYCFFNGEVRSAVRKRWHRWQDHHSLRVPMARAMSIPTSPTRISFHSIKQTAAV
T6 sequence (P24387 whole entry): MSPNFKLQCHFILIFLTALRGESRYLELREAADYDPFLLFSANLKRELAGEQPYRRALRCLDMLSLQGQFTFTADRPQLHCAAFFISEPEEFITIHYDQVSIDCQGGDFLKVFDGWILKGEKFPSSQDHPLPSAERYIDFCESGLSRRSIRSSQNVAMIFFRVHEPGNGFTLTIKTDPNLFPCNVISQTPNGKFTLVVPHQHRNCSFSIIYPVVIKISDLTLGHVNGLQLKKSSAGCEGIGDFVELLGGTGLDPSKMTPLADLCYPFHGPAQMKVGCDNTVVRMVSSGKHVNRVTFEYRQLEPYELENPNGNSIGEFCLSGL

N#C/C(=C\c1ccc(O)c([N+](=O)[O-])c1)c1nc2ccccc2s1
EC50 (Protein RecA): 4.58 µM (active) | IC50 (Aminopeptidase N): 33.9 µM (active) | IC50 [1]: > 100 µM (active) | AC50 [2]: 7.01 µM (active) | IC50 [3]: 3.41 µM (active) | IC50 [4]: 71.8 µM (active)

N#Cc1cccc(N2CCN(C(=O)CCCCCn3c(=S)[nH]c4ccccc4c3=O)CC2)c1
IC50 (Estrogen receptor): 90 nM (not active)

CCN(CC)c1ccc(/C=C2\CCC(/C=N/NC(=O)c3ccc(=O)n(C)c3)=C2N2CCOCC2)cc1
IC50 [5]: 16.6 µM (not active) | IC50 (Insulin-degrading enzyme): 12.5 µM (not active) | EC50 [6]: 5.19 µM (active)
